Test results published in patent US20090082350A1, “SOLUBLE EPOXIDE HYDROLASE INHIBITORS” (Arete Therapeutics, Inc., priority 2007, published 2009).

How the values were obtained:
[1] = system: soluble epoxide hydrolase (sEH); experiment: Fluorescent assay for mouse and human soluble epoxide hydrolase (CMNPC substrate); assay type: biochemical
Excerpt: Fluorescent Assay for Mouse and Human Soluble Epoxide Hydrolase
Recombinant mouse sEH (MsEH) and human sEH (HsEH) were produced in a baculovirus expression system as previously reported. Grant et al., J. Biol. Chem., 268:17628-17633 (1993); Beetham et al., Arch. Biochem. Biophys., 305:197-201 (1993). The expressed proteins were purified from cell lysate by affinity chromatography. Wixtrom et al., Anal. Biochem., 169:71-80 (1988). Protein concentration was quantified using the Pierce BCA assay using bovine serum albumin as the calibrating standard. The preparations were at least 97% pure as judged by SDS-PAGE and scanning densitometry. They contained no detectable esterase or glutathione transferase activity which can interfere with the assay. The assay was also evaluated with similar results in crude cell lysates or homogenate of tissues.
The IC50s for each inhibitor were according to the following procedure:
Cyano(2-methoxynaphthalen-6-yl)methyl (3-phenyloxiran-2-yl)methyl carbonate (CMNPC; Jones P. D. et. al.; Analytical Biochemistry 2005; 343: pp. 66-75)
Bis/Tris HCl 25 mM pH 7.0 containing 0.1 mg/mL of BSA (buffer A)
CMNPC at 0.25 mM in DMSO.
Mother solution of enzyme in buffer A (Mouse sEH at 6 μg/mL and Human sEH at […]).
Inhibitor dissolved in DMSO at the appropriate concentration.
In a black 96 well plate, fill all the wells with 150 μL of buffer A.
Add 2 μL of DMSO in well A2 and A3, and then add 2 μL of inhibitor solution in A1 and A4 through A12.
Add […] of buffer A in row A, then mix several time and transfer 150 L to row B. Repeat this operation up to row H. The 150 L removed from row H go to the trash.
Add […] of buffer A in column 1 and 2, then add […] of enzyme solution to column 3 to 12.
Incubate the plate for 5 minutes in the plate reader at 30° C.
During incubation prepare the working solution of substrate by mixing 3.68 mL of buffer A (4×0.920 mL) with 266 μL (2×133 μL) of substrate solution).
At t=0, add 30 L of working substrate solution with multi-channel pipette labeled “Briggs 303” and start the reading ([S]final: 5 μM).
Read with ex: 330 nm (20 nm) and em: 465 nm (20 nm) every 30 second for 10 minutes. The velocities are used to analyze and calculate the IC50s.

[2] = inhibitor concentration 50000 nM
[3] = inhibitor concentration 5000 nM

melting point	% Inh ([1]; inhibitor concentration 50 nM)	Structure (SMILES)	further results
208 to 210 °C		O=C(Nc1ccc(C(F)(F)F)cc1)Nc1cccc(C(=O)N2CCOCC2)n1 [Compound 12, 1-(6-(morpholine-4-carbonyl)pyridin-2-yl)-3-(4-(trifluoromethyl)phenyl)urea]	% Inh [1, 2]: 96%
200 to 206 °C		O=C(Nc1ccc(C(F)(F)F)cc1)Nc1cc(C(=O)N2CCOCC2)ccn1 [Compound 17, 1-(4-(morpholine-4-carbonyl)pyridin-2-yl)-3-(4-(trifluoromethyl)phenyl)urea]	% Inh ([1]; inhibitor concentration 500 nM): 91%
250 to 253 °C	73%	O=C(Nc1ccc(C(F)(F)F)cc1)Nc1cc(C(=O)N2CCOCC2)cs1 [Compound 13, 1-(4-(morpholine-4-carbonyl)thiophen-2-yl)-3-(4-(trifluoromethyl)phenyl)urea]	
189 to 192 °C		O=C(Nc1ccc(Cl)cc1)Nc1cc(C(=O)N2CCOCC2)ccn1 [Compound 19, 1-(4-chlorophenyl)-3-(4-(morpholine-4-carbonyl)pyridin-2-yl)urea]	% Inh ([1]; inhibitor concentration 500 nM): 72%
233 to 237 °C		O=C(Nc1ccc(C(F)(F)F)cc1)Nc1ccc(C(=O)N2CCOCC2)cn1 [Compound 8, 1-(5-(morpholine-4-carbonyl)pyridin-2-yl)-3-(4-(trifluoromethyl)phenyl)urea]	% Inh ([1]; inhibitor concentration 500 nM): 69%
75 to 80 °C		O=C(Nc1cncc(C(=O)N2CCOCC2)c1)Nc1cccc(C(F)(F)F)c1 [Compound 24, 1-(5-(morpholine-4-carbonyl)pyridin-3-yl)-3-(3-(trifluoromethyl)phenyl)urea]	% Inh [1, 3]: 60%
175 to 179 °C		O=C(Nc1cccc(C(F)(F)F)c1)Nc1cccc(C(=O)N2CCOCC2)n1 [Compound 20, 1-(6-(morpholine-4-carbonyl)pyridin-2-yl)-3-(3-(trifluoromethyl)phenyl)urea]	% Inh [1, 2]: 96%
250 to 253 °C	98%	O=C(Nc1ccc(C(F)(F)F)cc1)Nc1ccc(C(=O)N2CCOCC2)s1 [Compound 3, 1-(5-(morpholine-4-carbonyl)thiophen-2-yl)-3-(4-(trifluoromethyl)phenyl)urea]	
114 to 118 °C		O=C(Nc1ccc(C(F)(F)F)cc1)Nc1cncc(C(=O)N2CCOCC2)c1 [Compound 23, 1-(5-(morpholine-4-carbonyl)pyridin-3-yl)-3-(4-(trifluoromethyl)phenyl)urea]	% Inh ([1]; inhibitor concentration 500 nM): 75%
210 to 215 °C		O=C(Nc1cccc(C(F)(F)F)c1)Nc1cc(C(=O)N2CCOCC2)cs1 [Compound 14, 1-(4-(morpholine-4-carbonyl)thiophen-2-yl)-3-(3-(trifluoromethyl)phenyl)urea]	% Inh [1, 3]: 89%

Second part, the compound before the results:

Structure (SMILES)	melting point	% Inh ([1]; inhibitor concentration 50 nM)	further results
COc1ccc(-c2nnc(NC(=O)NC34CC5CC(CC(C5)C3)C4)s2)cc1 [Compound 9, 1-adamantan-1-yl-3-(5-(4-methoxyphenyl)-1,3,4-thiadiazol-2-yl)urea]	324 to 328 °C		% Inh [1, 2]: 37%
COc1ccc(-c2cc(NC(=O)Nc3cccc(C(F)(F)F)c3)[nH]n2)cc1 [Compound 5, 1-(3-(4-methoxyphenyl)-1H-pyrazol-5-yl)-3-(3-(trifluoromethyl)phenyl)urea]	189 to 194 °C		% Inh [1, 3]: 92%
COc1ccc(NC(=O)NC23CC4CC(CC(C4)C2)C3)cn1 [Compound 7, 1-adamantan-1-yl-3-(6-methoxypyridin-3-yl)urea]	205 to 211 °C	64%	
CC(=O)Nc1ccc(NC(=O)Nc2ccc(Cl)cc2)cn1 [Compound 6, N-(5-(3-(4-chlorophenyl)ureido)pyridin-2-yl)acetamide]	269 to 271 °C		% Inh ([1]; inhibitor concentration 500 nM): 87%
CCOC(=O)c1nnc(NC(=O)NC23CC4CC(CC(C4)C2)C3)s1 [Compound 26, ethyl 5-(3-adamantylureido)-1,3,4-thiadiazole-2-carboxylate]		91%	
CC(=O)Nc1ccc(NC(=O)NC23CC4CC(CC(C4)C2)C3)cn1 [Compound 4, N-(5-(3-adamantylureido)pyridin-2-yl)acetamide]	252 to 254 °C	77%	
O=C(Nc1ccc(Cl)cc1)Nc1ccc(C(=O)N2CCOCC2)s1 [Compound 11, 1-(4-chlorophenyl)-3-(5-(morpholine-4-carbonyl)thiophen-2-yl)urea]	242 to 245 °C	76%	
O=C(Nc1ccc(C(F)(F)F)cc1)Nc1ccc(Oc2ccccc2)nc1 [Compound 15, 1-(6-phenoxypyridin-3-yl)-3-(4-(trifluoromethyl)phenyl)urea]		90%	
COc1ccc(-c2cc(NC(=O)Nc3ccc(Cl)cc3)on2)cc1 [Compound 22, 1-(4-chlorophenyl)-3-(3-(4-methoxyphenyl)isoxazol-5-yl)urea]	165 to 170 °C		% Inh [1, 3]: 92%
COc1ccc(-c2cc(NC(=O)Nc3ccc(C(F)(F)F)cc3)[nH]n2)cc1 [Compound 2, 1-(3-(4-methoxyphenyl)-1H-pyrazol-5-yl)-3-(4-(trifluoromethyl)phenyl)urea]	228 to 231 °C		% Inh ([1]; inhibitor concentration 500 nM): 89%
COc1ccc(-c2cc(NC(=O)NC34CC5CC(CC(C5)C3)C4)[nH]n2)cc1 [Compound 1, 1-adamantan-1-yl-3-(3-(4-methoxyphenyl)-1H-pyrazol-5-yl)urea]			% Inh [1, 3]: 89%
O=C(Nc1ccc(Cl)cc1)Nc1cccc(C(=O)N2CCOCC2)n1 [Compound 18, 1-(4-chlorophenyl)-3-(6-(morpholine-4-carbonyl)pyridin-2-yl)urea]	205 to 208 °C		% Inh [1, 2]: 87%
O=C(Nc1ncc(C(=O)O)s1)NC12CC3CC(CC(C3)C1)C2 [Compound 25, 2-(3-adamantylureido)thiazole-5-carboxylic acid]			% Inh [1, 2]: 81%
COc1ccc(-c2nnc(NC(=O)Nc3cccc(C(F)(F)F)c3)s2)cc1 [Compound 10, 1-(5-(4-methoxyphenyl)-1,3,4-thiadiazol-2-yl)-3-(3-(trifluoromethyl)phenyl)urea]	331 to 336 °C		% Inh ([1]; inhibitor concentration 12500 nM): 39%
CCOC(=O)c1cnc(NC(=O)NC23CC4CC(CC(C4)C2)C3)s1 [Compound 21, ethyl 2-(3-adamantylureido)thiazole-5-carboxylate]			% Inh ([1]; inhibitor concentration 500 nM): 97%
O=C(Nc1ccc(Oc2ccccc2)nc1)NC12CC3CC(CC(C3)C1)C2 [Compound 16, 1-adamantan-1-yl-3-(6-phenoxypyridin-3-yl)urea]	185 to 188 °C	95%	
